Drawing on ChEMBL document CHEMBL4130472, “Synthesis of naphthazarin derivatives and identification of novel thioredoxin reductase inhibitor as potential anticancer agent” (Eur J Med Chem, 2017), this text covers viability and IC50 for 15 molecules.

In the first test the test system is HL-60. In words: Cytotoxicity in human HL60 cells assessed as cell viability at 20 uM incubated for 48 hrs by MTT assay. It counts as functional. To be noted: HL-60, 48 h, read-out: Activity. In general terms: Tetrazolium assays rely on reduction of a dye to a coloured formazan, in cell work by metabolically active cells.
On to `CCCCNC1=CC(=O)c2c(O)ccc(O)c2C1=O`, for which the viability at 20 µM turned out to be 59.2%.
In the case of `CCCCCCCCNC1=CC(=O)c2c(O)ccc(O)c2C1=O`, the viability at 20 µM is 61.1%.
Turning to `O=C1C=C(NCc2ccccc2)C(=O)c2c(O)ccc(O)c21`, the viability at 20 µM was 54.6%.
For `O=C1C=C(N2CCCCC2)C(=O)c2c(O)ccc(O)c21`, the viability at 20 µM is 54.9%.
Still for that read-out and setting: as for `O=C1C=C(NCCO)C(=O)c2c(O)ccc(O)c21`, the figure is 50.3%.
As to `CCCNC1=CC(=O)c2c(O)ccc(O)c2C1=O`, the viability at 20 µM came out at 59.4%.
Turning to `CCC(C)NC1=CC(=O)c2c(O)ccc(O)c2C1=O` (configuration not stated), the viability at 20 µM stood at 57%.
On the same count and under the same terms, as for `O=C1C=CC(=O)c2c(O)ccc(O)c21` [NAPHTHAZALIN], the figure is 0%; as for `CCNC1=CC(=O)c2c(O)ccc(O)c2C1=O`, 56.4%.
As to `CC(C)CCNC1=CC(=O)c2c(O)ccc(O)c2C1=O`, the viability at 20 µM turned out to be 54.3%.
With `O=C1C=C(N2CCOCC2)C(=O)c2c(O)ccc(O)c21`, the viability at 20 µM amounted to 50.1%.
In the case of `O=C1C=CC(=O)c2c(Cl)ccc(O)c21`, the viability at 20 µM was found to be 23.1%.
Consider `O=C1C=C(Nc2ccccc2)C(=O)c2c(O)ccc(O)c21`, for which the viability at 20 µM was found to be 59.7%.
In the case of `CNC1=CC(=O)c2c(O)ccc(O)c2C1=O`, the viability at 20 µM amounted to 63%.
Turning to `O=C1C=C(N2CCCC2)C(=O)c2c(O)ccc(O)c21`, the viability at 20 µM is 97.2%.

The next test relates to HL-60. The experiment in a line: Cytotoxicity in human HL60 cells assessed as reduction in cell viability incubated for 48 hrs by MTT assay. It counts as functional, cell-based. The conditions noted are these: HL-60, 48 h.
For the molecule `O=C1C=CC(=O)c2c(O)ccc(O)c21` [NAPHTHAZALIN], the concentration for half-maximal inhibition (IC50) (commonly the concentration needed to halve the response being measured) was found to be 930 nM.

For the next test, the system named is HL-60. The experiment in a line: Cytotoxicity in human HL60 cells assessed as reduction in cell viability incubated for 72 hrs by MTT assay. In kind it is functional, cell-based. The conditions noted are these: HL-60, 72 h.
Consider `O=C1C=CC(=O)c2c(O)ccc(O)c21` [NAPHTHAZALIN], for which the IC50 is 800 nM.
